# Measured values taken from patent US20080108548A1, “Food Composition For Rapidly Attenuating Inflammatory Responses” (priority 2004, published 2008).
# Test system: rats subjected to hemorrhagic shock
# Procedure: Using the non-lethal hemorrhagic shock model as described earlier (Luyer et al., Ann. Surg. 239:257-264, 2004; Luyer et al. Shock 21:65-71, 2004) rats were anesthetised, the femoral artery was dissected and cannulated. Mean arterial pressure (MAP) and heart rate were continuously recorded for 50 min. At the time of shock (t=0), 2.1 ml blood per 100 g body weight was taken at a rate of 1 ml/min (34-40% of total blood volume). At 45 min before induction of hemorrhagic shock, rats were subjected to vagotomy or sham vagotomy. In vagotomised animals a ventral cervical incision was made and both vagal trunks exposed. The vagus nerve was ligated at both ends using 4-0 silk suture and divided. In sham-operated animals, both vagal trunks were exposed, but the vagus nerve was not ligated and divided.
# Before the experiments, 18 rats were fasted, 18 were fed with low-fat feed (6.9 en % protein, 75.4 en % carbohydrate, 16.7 en % fat) and 18 were fat with a high-fat feed according to the invention (6.9 en % protein, 40.9 en % carbohydrate, 52.2 en % fat). The low-fat and high-fat feeds were isocaloric. 3 ml was given at 18 h before hemorrhagic shock, and 0.75 ml at 2 h and 45 min before hemorrhagic by oral gavage. Fasted and high-fat fed rats underwent vagotomy or sham vagotomy. To investigate the role of CCK, six high-fat fed animas were injected i.v. with CCK-A (500 μg/kg) and CCK-B (500 μg/kg) receptor antagonists and six with control vehicle 25 min before induction of shock. […] At 90 min after hemorrhagic shock, blood was taken and segments of small bowel were harvested for determination of gut permeability. Plasma was separated by centrifugation, frozen immediately and stored until analysis.
# [1] = high-fat fed rats given the blocker i.v. 25 min before shock, compared to high-fat controls
# [2] = high-fat rats treated with chlorisondamine versus chlorisondamine-treated fasted rats
smiles,measurement,setting,value
C[N+](C)(C)CC[N+]1(C)Cc2c(Cl)c(Cl)c(Cl)c(Cl)c2C1 [chlorisondamine],bacterial translocation to distant organs,[1],increased
same,plasma endotoxin,[1],elevated
same,inhibitory effect of high-fat enteral nutrition on circulating TNF-α,"high-fat fed sham-vagotomised rats, i.v. 25 min before shock",abrogated
same,IL-6 levels,[2],comparable
same,TNF-α levels,[2],comparable
same,MAP,"rat, in vivo",significantly lower
same,additional hypotension or changes in heart rate,"rat, in vivo",did not cause
same,decrease in MAP associated with administration,"rat, in vivo, iv",100 to 65 mm Hg
